From patent US11426403B2 (ST IP Holding AG, priority 2016, dated 2022) come the findings set out here.

Data set [1] deals with oral mucositis induced by acute radiation, left buccal cheek pouch. On the procedure:
Twenty-four (24) male Syrian Golden Hamsters were used in the study. Mucositis was induced by giving an acute radiation dose of 40 Gy directed to the left buccal cheek pouch on Day 0. Mucositis was evaluated clinically starting on Day 6, and continuing on alternate days until Day 28.
Mucositis was scored visually by comparison to a validated photographic scale, ranging from 0 for normal, to 5 for severe ulceration (clinical scoring). In descriptive terms, this scale is defined as described in Table 7 below: […]
A mucositis score of 3 or greater indicates ulcerative mucositis, a clinically significant threshold.
Statistical significance of observed differences was calculated using chi-squared analysis.
An analysis of the severity of mucositis was performed using the Mann-Whitney rank sum analysis to compare the visual mucositis scores for Groups 2 and 3 to the vehicle control group (Group 1) on each day of the analysis. In this analysis, 2 consecutive days of significant reduction in the mucositis score are generally required before it is regarded as clinically meaningful.
The significance of group differences observed in daily mucositis scores was determined using the Mann-Whitney rank sum test. This nonparametric statistic is appropriate for the visual mucositis scoring scale. The p-values for each calculation are shown. “x” denotes significant difference in mucositis scores. “y” denotes increase in comparison to vehicle Group […], “z” denotes decrease.
“y” denotes an increase in comparison to vehicle Group, “z” denotes decrease (improvement).

The conditions of data set [2]: hamster, Days -3 to 28, topical 1 mg/dose BID.
Data set [3] has as its system primary human gingival epithelial cells (HGEPp). The settings on record: pretreated 24 h at 50 to 800 ug/ml, then 0.3 mM H2O2 for 4 h; P<0.05 versus PC.
Procedure: (§1) Pooled primary HGEPps were propagated in CnT-Prime epithelial culture medium provided by CellnTec on 100 mm petri dishes coated with 30 mg/ml Type I rat tail collagen (BD Biosciences) diluted in Dulbecco's phosphate-buffered saline (DPBS). […] The cells were harvested when they reached 70-90% confluency as observed by light microscopy. For routine cultivation, the medium was changed every 3 days. For both the cell viability and ROS assays, the cells from passages 3-7 were seeded at 5×10 3, 2.5×10 4, 5×10^4 cells/cm 2 density to grow cell monolayers in 24-well flat-bottomed tissue culture plates and acclimated overnight at 37° C. […]
(§2) Once the HGEPp cells were cultured and ready on the microplate, the media was removed from all the wells and discarded. […] Removed the plate cover and measured the absorbance of the wells, including the blanks at 570 nm. • 8. Determined the average values from triplicate readings after subtracting the average value for the blanks.
(§3) HGEPp cells were exposed to different concentrations of H2O2 for 4 h to examine H2O2-induced oxidative stress. The cells were exposed to 0-0.6 mM H2O2 for 4 h and cell viability was evaluated using the TACS MTT Cell Proliferation Assay Kit. The percentage of cell survival was determined using the ratio of the optical density (OD) of the test sample to the OD of the control×100%. […]
For data set [4], the system named is reactive oxygen species within HGEPp cells. The settings on record: 0.3 mM H2O2 for 4 h.
Source text: 2. measure the effect of recrystallized oltipraz and formulated oltipraz on hydroxyl, peroxyl and other reactive oxygen species within HGEPp cells, using Cell Biolabs' OxiSelect™ Intracellular ROS Assay Kit. This assay employs the cell-permeable fluorogenic probe 2′,7′-dichlorodihydrofluorescin diacetate (DCFH-DA) which diffuses into cells and is deacetylated by cellular esterases to a nonfluorescent DCFH which is then rapidly oxidized to highly fluorescent 2′,7′-dichlorodihydrofluorescein (DCF) by ROS.
Pooled primary HGEPps were propagated in CnT-Prime epithelial culture medium provided by CellnTec on 100 mm petri dishes coated with 30 mg/ml Type I rat tail collagen (BD Biosciences) diluted in Dulbecco's phosphate-buffered saline (DPBS). […] The cells were harvested when they reached 70-90% confluency as observed by light microscopy. For routine cultivation, the medium was changed every 3 days. […]
Prepared and mixed all reagents thoroughly before use. […] Once the HGEPp cells were cultured and ready on a microplate, the media was removed from all the wells and discarded. […] Fluorescence was read on a Fluorescence Plate Reader after 1 hour. […] Transferred 150 μL of the mixture to a fresh 24-well plate for fluorescence measurements at 530 nm. […]
Intracellular ROS was measured using a Spectramax M3 microplate reader.
Data set [5] has as its system primary human gingival epithelial cells (HGEPp). The data set is described as follows: cells. The settings on record: Epithelial cell, 4 h, read-out: IC50 of H2O2 in HGEPp cells.
Procedure: as §1, §2, §3

Each structure is given as a SMILES string. pIC50: −log10 of the molar value. Like-named read-outs stand apart in the source and are kept apart here.

On to `Cc1c(-c2cnccn2)ssc1=S` [Neat oltipraz, 4-methyl-5-(pyrazin-2-yl)-3H-1,2-dithiole-3-thione], for which the “Percent of Animals with Ulceration (Score ≥ 3)” value in data set [1] (Day 6) came to 0.0%; in data set [1] (Day 8) it was 0.0%; in data set [1] (Day 10) it was 0.0 z Percent; in data set [1] (Day 12) it was 50.0 y Percent; in data set [1] (Day 14) it was 100.0%; in data set [1] (Day 16), 100.0%. The “Percent of Animals with Ulceration (Score ≥ 3)” value in data set [1] (Day 18) is reported as 100.0%; in data set [1] (Day 20), 100.0%; in data set [1] (Day 22), 100.0%; in data set [1] (Day 24), 50.0 z Percent; in data set [1] (Day 26), 25.0 z Percent; in data set [1] (Day 28) it was 25.0 z Percent. Moreover, in data set [2], the “mean daily percent body weight change (rate of weight gain)” value is “gained weight at a slower rate than those administered placebo”. In data set [3], the “effect on H2O2-induced decrease in HGEPp survival (MTT)” value was “promoted cell proliferation and reduced H2O2-induced decrease in HGEPp survival”.
In general, pIC50 refers to the IC50 on a negative log10 scale, so that one unit is a factor of ten. On to `OO` [Sample H2O2, hydrogen peroxide], for which the “ROS levels compared to normal control cells (100%)” value in data set [4] worked out at 128%. The negative logarithm of the IC50 (pIC50) in data set [5] was 3.52.
